Our source for the bioavailability and solubility values is patent publication US20100016275A1, “NOVEL COMPOUND 395” (priority 2008, published 2010).

Each structure is given as a SMILES string. In brackets after ≈: the same amount, converted by molar mass.

A short description of series [1]: Bioavailability (F) in the rat. It is filed as in vivo. Conditions: plasma, 3 mg/kg; male rat, oral vs iv AUC, dose normalised. The text has this:
Bioavailability (F) in the Rat
This describes the methods used to obtain in vivo pharmacokinetic parameters in the male rat. It is applicable for use with any compound but may need modification based on such parameters as solubility, assay sensitivity, anticipated clearance and half-life, when the default formulation, dose level or sampling intervals may be inappropriate. The method described here represents a standard approach from which justified and documented modifications can be made. This method also allows for single compounds or mixtures (cassettes) to be administered.
A standard dose solution of 1 mg·mL^−1 was prepared. The recommended dose vehicle (if the compound was not sufficiently soluble in isotonic saline) was 50% PEG 400:50% sterile water. The required mass of compound was dissolved in the PEG400 before addition of the water. […]
The concentration of the analyte(s) were determined in plasma quantitative by mass spectrometry.
Pharmacokinetic data analysis and tabulation was achieved using WinNonlin and Excel. […] Bioavailability (F) was calculated from the ratio of the iv and oral AUC (the integral of the plasma concentration time curve) once dose normalised.

Series [2] is described as follows: Measurement of solubility (S). It is filed as physicochemical. To be noted: thermodynamic from solid; saturated solution, shaken overnight at 20° C. The text has this: Measurement of Solubility (S)
The solubility of a compound is an important property affecting the preparation of solutions of the compound for screening, as well as influencing absorption of solid doses of the compound in animal and human studies. The method described below for measuring the solubility involves the generation of a saturated solution of the compound, followed by assaying the solution using HPLC with UV quantification and MS identification.
Saturated solutions for determining the solubility were prepared by placing about 0.3-3.0 ml of solvent in glass screw-top sample tubes along with some of the compound. The tubes are then shaken overnight in the constant temperature room (20° C.). After shaking, undissolved material should be present in the solution, and more was added and shaking continued if this was not the case. The samples were then transferred to a centrifuge tube and centrifuged using a Heraeus Biofuge Fresco centrifuge at 13000 rpm for about 30 minutes. The supernatant was then removed, placed in a new centrifuge tube and centrifuged again for about 30 minutes at 13000 rpm. The undissolved material formed a pellet at the bottom of the tube and the liquid above the pellet was removed for assaying. The solution was then analysed using HPLC with UV quantification. If the response for the compound is very strong then the solution should be accurately diluted such that the response lies within a more suitable range of UV response. A standard was also prepared by accurately weighing a sample of the compound and dissolving it in a suitable volume of a solvent that dissolves it completely (typically, DMSO, ethanol or methanol). This sample was then analysed by HPLC/UV. Again the response of this standard should lie within a suitable range of UV response otherwise a more appropriate concentration should be prepared and analysed by HPLC/UV.
The solubility (S) was calculated from the observed peak areas in the HPLC/UV chromatograms along with corrections for any dilutions of the sample and differences in injection volumes. The following equation was used: […]

A word on the bioavailability: it is dose-corrected exposure relative to a reference, in per cent. A low value points to little systemic uptake. The solubility is how much of the substance goes into solution per volume. High values mean a readily soluble substance, low ones a poorly soluble substance. In series [1], `Cc1cccc(CSc2nc(N[C@H](C)CO)cc(NS(C)(=O)=O)n2)c1F` [Example 39] yielded a bioavailability of 44%. The solubility in series [2] came out at 342 µg/mL (≈ 854 µM).
For the compound `C[C@@H](Nc1cc(NS(=O)(=O)N2CCC2)nc(SCc2cccc(F)c2F)n1)[C@@H](O)CO` [Example 1, N-(2-[(2,3-difluorobenzyl)thio]-6-{[(1R,2R)-2,3-dihydroxy-1-methylpropyl]amino}pyrimidin-4-yl)azetidine-1-sulfonamide], the bioavailability in series [1] was determined as 49%. Moreover, the solubility in series [2] came out at 317 µg/mL (≈ 667 µM).
`Cc1ccc(CSc2nc(N[C@H](C)CO)cc(NS(=O)(=O)N3CCC3)n2)c(F)c1C` [Example 41] gave a solubility in series [2] of 372 µg/mL (≈ 817 µM).
